Results as given in BigSolDB 2.1.

Cc1ccc([N+](=O)[O-])c(C(=O)O)c1
Settings | solubility (mole fraction)
in isobutanol, 293.75 K | 0.113
in isobutanol, 299.15 K | 0.133
in isobutanol, 305.75 K | 0.153
in isobutanol, 311.15 K | 0.173
in isobutanol, 317.55 K | 0.193
in isobutanol, 322.95 K | 0.209
in isobutanol, 328.15 K | 0.227
in isobutanol, 333.65 K | 0.243
in n-butanol, 290.65 K | 0.167
in n-butanol, 292.15 K | 0.172
in n-butanol, 294.15 K | 0.183
in n-butanol, 297.75 K | 0.199
in n-butanol, 302.85 K | 0.218
in n-butanol, 307.15 K | 0.237
in n-butanol, 311.65 K | 0.256
in n-butanol, 315.15 K | 0.275
in n-butanol, 319.75 K | 0.295
in n-butanol, 323.85 K | 0.316
in n-butanol, 328.15 K | 0.338
in sec-butanol, 290.15 K | 0.185
in sec-butanol, 292.45 K | 0.199
in sec-butanol, 297.65 K | 0.225
in sec-butanol, 303.15 K | 0.253
in sec-butanol, 309.95 K | 0.28
in sec-butanol, 315.35 K | 0.305
in sec-butanol, 321.15 K | 0.329
in sec-butanol, 326.15 K | 0.352
in sec-butanol, 330.55 K | 0.372
in tert-butanol, 301.55 K | 0.255
in tert-butanol, 305.15 K | 0.274
in tert-butanol, 309.85 K | 0.295
in tert-butanol, 314.45 K | 0.318
in tert-butanol, 318.15 K | 0.341
in tert-butanol, 322.75 K | 0.366
in tert-butanol, 327.35 K | 0.392
in tert-butanol, 332.05 K | 0.418
in tert-butanol, 336.55 K | 0.445
in tert-butanol, 339.55 K | 0.473

Cc1cc(C(=O)O)ccc1[N+](=O)[O-]
Settings | solubility (mole fraction)
in isobutanol, 306.95 K | 0.009
in isobutanol, 309.55 K | 0.0105
in isobutanol, 315.75 K | 0.0132
in isobutanol, 319.55 K | 0.0158
in isobutanol, 323.85 K | 0.0192
in isobutanol, 328.95 K | 0.0235
in isobutanol, 333.95 K | 0.0283
in isobutanol, 337.95 K | 0.0332
in isobutanol, 342.15 K | 0.0391
in isobutanol, 346.65 K | 0.0457
in n-butanol, 305.15 K | 0.013
in n-butanol, 309.55 K | 0.0153
in n-butanol, 314.95 K | 0.0177
in n-butanol, 318.35 K | 0.0201
in n-butanol, 321.35 K | 0.0228
in n-butanol, 324.35 K | 0.026
in n-butanol, 327.95 K | 0.03
in n-butanol, 332.05 K | 0.0349
in n-butanol, 336.75 K | 0.0405
in n-butanol, 341.25 K | 0.047
in n-butanol, 345.35 K | 0.0546
in sec-butanol, 304.55 K | 0.0142
in sec-butanol, 307.65 K | 0.0166
in sec-butanol, 311.55 K | 0.0199
in sec-butanol, 316.25 K | 0.0243
in sec-butanol, 321.35 K | 0.0297
in sec-butanol, 326.15 K | 0.0359
in sec-butanol, 331.15 K | 0.0428
in sec-butanol, 335.25 K | 0.05
in sec-butanol, 339.25 K | 0.0578
in sec-butanol, 343.55 K | 0.0667
in tert-butanol, 304.35 K | 0.0193
in tert-butanol, 306.95 K | 0.0229
in tert-butanol, 310.15 K | 0.0271
in tert-butanol, 314.95 K | 0.0321
in tert-butanol, 317.95 K | 0.0372
in tert-butanol, 321.65 K | 0.043
in tert-butanol, 325.85 K | 0.0493
in tert-butanol, 329.45 K | 0.0556
in tert-butanol, 333.05 K | 0.0627
in tert-butanol, 336.35 K | 0.0703
in tert-butanol, 339.65 K | 0.0791
in tert-butanol, 343.65 K | 0.0878
in tert-butanol, 345.25 K | 0.0915

Cc1cccc(C(=O)O)c1[N+](=O)[O-]
Settings | solubility (mole fraction)
in isobutanol, 297.15 K | 0.0102
in isobutanol, 300.65 K | 0.0119
in isobutanol, 303.45 K | 0.0138
in isobutanol, 306.55 K | 0.0161
in isobutanol, 311.15 K | 0.0193
in isobutanol, 315.05 K | 0.0227
in isobutanol, 317.85 K | 0.0268
in isobutanol, 322.15 K | 0.0314
in isobutanol, 326.25 K | 0.0367
in isobutanol, 330.35 K | 0.0425
in isobutanol, 333.45 K | 0.0486
in isobutanol, 337.15 K | 0.0558
in n-butanol, 300.75 K | 0.0177
in n-butanol, 304.15 K | 0.0199
in n-butanol, 307.55 K | 0.0228
in n-butanol, 312.55 K | 0.0264
in n-butanol, 316.15 K | 0.0304
in n-butanol, 319.85 K | 0.0351
in n-butanol, 324.15 K | 0.0406
in n-butanol, 328.25 K | 0.0466
in n-butanol, 332.25 K | 0.0529
in n-butanol, 335.95 K | 0.0597
in n-butanol, 339.95 K | 0.0676
in n-butanol, 343.45 K | 0.0742
in sec-butanol, 305.05 K | 0.024
in sec-butanol, 307.65 K | 0.0272
in sec-butanol, 311.15 K | 0.0314
in sec-butanol, 315.25 K | 0.0373
in sec-butanol, 319.85 K | 0.0447
in sec-butanol, 323.95 K | 0.053
in sec-butanol, 328.85 K | 0.0622
in sec-butanol, 333.35 K | 0.0718
in sec-butanol, 337.65 K | 0.0817
in sec-butanol, 342.25 K | 0.0921
in sec-butanol, 346.25 K | 0.102
in tert-butanol, 301.35 K | 0.0307
in tert-butanol, 304.05 K | 0.0328
in tert-butanol, 306.25 K | 0.0366
in tert-butanol, 310.05 K | 0.0442
in tert-butanol, 314.75 K | 0.0531
in tert-butanol, 318.95 K | 0.0619
in tert-butanol, 323.05 K | 0.0711
in tert-butanol, 327.35 K | 0.0802
in tert-butanol, 331.45 K | 0.0898
in tert-butanol, 335.95 K | 0.0999
in tert-butanol, 340.65 K | 0.111
